Data reported in article PMC13288469, “Bile acids accumulate norovirus-like particles and enhance binding to and entry into human enteric epithelial cells” (Journal of Virology, 2026).

The molecules below were run against T1, HuNoV GII.4 VLP (Human calicivirus NLV/DIJON171/96, UniProt Q8QY55) (assay: SPR, Biacore T-200, VLP immobilized on CM5 chip).
T1 construct: full VP1 virus-like particle, self-assembled, from baculovirus (Bac-to-Bac) infected SF-9 cells, sucrose gradient purified; amine-coupled to CM5 chip
Type: binding
From the text: SPR, Biacore T-200, VLP immobilized on CM5 chip on HuNoV GII.4 VLP

Point of comparison: `C[C@H](CCC(=O)NCCS(=O)(=O)O)[C@H]1CC[C@H]2[C@@H]3CC[C@@H]4C[C@H](O)CC[C@]4(C)[C@H]3C[C@H](O)[C@]12C` [TDCA], Kd 308 ± 29.7 µM. Against it:
- C[C@H](CCC(=O)NCC(=O)O)[C@H]1CC[C@H]2[C@@H]3[C@H](O)C[C@@H]4C[C@H](O)CC[C@]4(C)[C@H]3CC[C@]12C [GCDCA] — 2.5-fold lower, 123 ± 24 µM
- C[C@H](CCC(=O)NCC(=O)O)[C@H]1CC[C@H]2[C@@H]3CC[C@@H]4C[C@H](O)CC[C@]4(C)[C@H]3C[C@H](O)[C@]12C [GDCA] — within error, 286 ± 64.3 µM
- C[C@H](CCC(=O)NCCS(=O)(=O)O)[C@H]1CC[C@H]2[C@@H]3CC[C@@H]4C[C@H](O)CC[C@]4(C)[C@H]3CC[C@]12C [TLCA] — 4.8-fold lower, 64 ± 9.9 µM
- C[C@H](CCC(=O)O)[C@H]1CC[C@H]2[C@@H]3CC[C@@H]4C[C@H](O)CC[C@]4(C)[C@H]3C[C@H](O)[C@]12C [DCA] — 1.8-fold lower, 176 ± 4.9 µM
- C[C@H](CCC(=O)NCCS(=O)(=O)O)[C@H]1CC[C@H]2[C@@H]3[C@H](O)C[C@@H]4C[C@H](O)CC[C@]4(C)[C@H]3CC[C@]12C [TCDCA] — within error, 236 ± 58 µM
